ChEMBL document CHEMBL1201862, “PubChem BioAssay data set” (2004)
Active and inactive are the calls of the source.

Experiments:
[1] = biological target: T1, Tyrosine-protein phosphatase non-receptor type 7 (Homo sapiens, UniProt P35236); format: functional
T1 sequence (P35236 whole entry): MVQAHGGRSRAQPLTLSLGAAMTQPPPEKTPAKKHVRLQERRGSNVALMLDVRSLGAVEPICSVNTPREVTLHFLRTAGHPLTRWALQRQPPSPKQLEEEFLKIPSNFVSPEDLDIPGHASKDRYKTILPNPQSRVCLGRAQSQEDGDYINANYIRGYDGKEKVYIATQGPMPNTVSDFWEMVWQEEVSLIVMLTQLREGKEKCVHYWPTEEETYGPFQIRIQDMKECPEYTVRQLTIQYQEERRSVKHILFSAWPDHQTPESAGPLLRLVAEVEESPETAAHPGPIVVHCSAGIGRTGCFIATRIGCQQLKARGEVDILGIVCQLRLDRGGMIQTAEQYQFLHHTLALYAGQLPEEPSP

[2] = biological target: T2, Tyrosine-protein phosphatase non-receptor type 22 (Homo sapiens, UniProt Q9Y2R2); format: functional
T2 sequence (Q9Y2R2 whole entry): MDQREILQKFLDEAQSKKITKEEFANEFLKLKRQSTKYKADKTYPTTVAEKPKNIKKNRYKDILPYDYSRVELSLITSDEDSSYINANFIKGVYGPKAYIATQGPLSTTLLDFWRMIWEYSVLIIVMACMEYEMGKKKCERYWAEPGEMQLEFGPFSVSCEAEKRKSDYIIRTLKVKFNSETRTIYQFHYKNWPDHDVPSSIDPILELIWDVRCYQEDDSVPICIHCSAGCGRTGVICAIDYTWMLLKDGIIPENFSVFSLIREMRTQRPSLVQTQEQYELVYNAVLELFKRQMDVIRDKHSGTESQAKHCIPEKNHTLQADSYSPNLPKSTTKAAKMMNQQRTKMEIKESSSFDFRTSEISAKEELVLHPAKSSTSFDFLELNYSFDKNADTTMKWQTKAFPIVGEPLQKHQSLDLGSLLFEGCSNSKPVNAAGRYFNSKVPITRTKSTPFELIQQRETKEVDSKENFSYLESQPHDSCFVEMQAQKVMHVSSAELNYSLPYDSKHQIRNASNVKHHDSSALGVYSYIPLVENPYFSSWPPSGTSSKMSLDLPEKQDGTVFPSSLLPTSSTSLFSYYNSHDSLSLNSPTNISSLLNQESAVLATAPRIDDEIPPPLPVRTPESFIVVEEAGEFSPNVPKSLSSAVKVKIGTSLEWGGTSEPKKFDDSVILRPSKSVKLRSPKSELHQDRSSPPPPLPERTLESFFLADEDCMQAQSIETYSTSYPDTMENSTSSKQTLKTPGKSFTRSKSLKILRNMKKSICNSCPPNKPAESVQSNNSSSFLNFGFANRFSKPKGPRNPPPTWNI

[3] = biological target: T2, Tyrosine-protein phosphatase non-receptor type 22; format: functional; remark: listed apart in the source
[4] = biological target: Alkaline phosphatase, placental type (Homo sapiens, UniProt P05187); test: human placental alkaline phosphatase inhibition – biochemical, luminescence, confirmation (AID 1512); format: functional
[5] = biological target: T3, Alkaline phosphatase, tissue-nonspecific isozyme (Homo sapiens, UniProt P05186); test: potency against alkaline phosphatase TNAP – biochemical, luminescent, dose response, SAR follow-up (AID 1056)
T3 sequence (P05186 whole entry): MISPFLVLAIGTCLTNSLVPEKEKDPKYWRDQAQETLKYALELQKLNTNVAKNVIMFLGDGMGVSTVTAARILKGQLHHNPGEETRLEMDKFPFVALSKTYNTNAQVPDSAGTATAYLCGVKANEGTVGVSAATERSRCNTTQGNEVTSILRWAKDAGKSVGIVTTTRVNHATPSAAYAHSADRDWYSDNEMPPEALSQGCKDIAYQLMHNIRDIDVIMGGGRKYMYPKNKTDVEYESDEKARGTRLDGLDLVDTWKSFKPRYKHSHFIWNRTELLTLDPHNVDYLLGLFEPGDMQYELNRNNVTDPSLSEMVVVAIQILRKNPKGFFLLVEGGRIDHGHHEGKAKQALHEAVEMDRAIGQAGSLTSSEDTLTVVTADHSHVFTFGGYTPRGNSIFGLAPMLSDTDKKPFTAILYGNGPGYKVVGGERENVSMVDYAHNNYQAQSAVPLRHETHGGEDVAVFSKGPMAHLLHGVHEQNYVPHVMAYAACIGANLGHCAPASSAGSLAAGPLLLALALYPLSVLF

Streptokinase A = biological target: T4, Streptokinase A (Streptococcus pyogenes serotype M1, UniProt P10520); test: viability-normalized secreted streptokinase activity reduction – plasminogen activation absorbance, OD405, dose response (AID 1914); format: functional, Streptococcus pyogenes M1 GAS;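 further: secreted streptokinase activity via plasminogen activation per viability signal from cell pellet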
T4 sequence (P10520 whole entry): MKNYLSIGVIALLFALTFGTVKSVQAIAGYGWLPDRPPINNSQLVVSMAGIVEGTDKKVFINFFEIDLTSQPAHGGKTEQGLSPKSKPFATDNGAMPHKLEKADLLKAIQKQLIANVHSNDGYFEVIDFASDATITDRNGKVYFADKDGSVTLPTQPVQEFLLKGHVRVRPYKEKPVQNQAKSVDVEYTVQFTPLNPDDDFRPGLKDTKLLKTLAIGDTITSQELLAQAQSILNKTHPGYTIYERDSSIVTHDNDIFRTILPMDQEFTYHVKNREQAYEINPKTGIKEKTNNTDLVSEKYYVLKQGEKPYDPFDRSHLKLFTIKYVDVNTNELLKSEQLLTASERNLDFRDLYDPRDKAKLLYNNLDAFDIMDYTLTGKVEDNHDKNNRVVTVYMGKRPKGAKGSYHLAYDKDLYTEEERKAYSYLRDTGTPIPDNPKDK

Streptococcus = test: GAS UMAA2166 growth inhibition – luminescence, BacTiterGlo, counter-screen for streptokinase expression inhibitor project, dose response (AID 1915); format: functional, organism-based;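 further: potency for reduction of bacterial viability or growth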
[6] = system: Streptococcus sp. 'group A'; test: Streptococcus pyogenes SK(-)GAS viability under kanamycin – luminescence, BacTiterGlo, confirmation, counter-screen for streptokinase expression inhibitor project, dose response (AID 1900); format: functional, organism-based
Coagulation factor XII = Coagulation factor XII (Homo sapiens, UniProt P00748); format: functional;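 further: activated factor XIIa alpha cleaving a fluorogenic AMC peptide substrate; inhibitor potency from loss of enzyme activity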
Hexokinase = Hexokinase (Trypanosoma brucei, UniProt Q38C41); test: Confirmation assay for inhibitors of Trypanosoma brucei hexokinase 1-Analogue-first series. [Related pubchem assays (depositor defined):AID1430, AID1632, AID2516, AID2560, AID2579, AID2600, AID449725, AID492951]; format: functional
[7] = viability loss in HeLa cells – cytotoxicity control for MgcRacGAP inhibitor project, dose response (AID 624300); format: functional
Phosphomannomutase 2 = biological target: T5, Phosphomannomutase 2 (Homo sapiens, UniProt O15305); test: Counter screen SAR assay for PMM2 inhibitors via a fluorescence intensity assay. [Related pubchem assays (depositor defined):AID1545, AID1574]
T5 sequence (O15305 whole entry): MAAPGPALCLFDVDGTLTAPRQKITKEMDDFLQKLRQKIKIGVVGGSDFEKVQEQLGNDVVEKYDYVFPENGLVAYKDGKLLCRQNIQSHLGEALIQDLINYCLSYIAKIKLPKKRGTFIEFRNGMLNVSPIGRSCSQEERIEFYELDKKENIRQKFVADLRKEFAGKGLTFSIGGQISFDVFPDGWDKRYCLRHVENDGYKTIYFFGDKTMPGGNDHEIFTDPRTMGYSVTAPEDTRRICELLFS

[8] = biological target: Glucose-6-phosphate 1-dehydrogenase (Homo sapiens, UniProt P11413); test: inhibition of Homo sapiens G6PD, dose series – biochemical, fluorescence, selectivity assay for P. falciparum G6PD inhibitor project, dose response (AID 504792); format: functional
[9] = biological target: T6, Rac GTPase-activating protein 1 (Homo sapiens, UniProt Q9H0H5); test: blockers of MgcRacGAP-driven Rac1 GTP hydrolysis – biochemical, ADP Hunter fluorescence, primary and confirmatory, confirmation (AID 624330); format: functional
T6 sequence (Q9H0H5 whole entry): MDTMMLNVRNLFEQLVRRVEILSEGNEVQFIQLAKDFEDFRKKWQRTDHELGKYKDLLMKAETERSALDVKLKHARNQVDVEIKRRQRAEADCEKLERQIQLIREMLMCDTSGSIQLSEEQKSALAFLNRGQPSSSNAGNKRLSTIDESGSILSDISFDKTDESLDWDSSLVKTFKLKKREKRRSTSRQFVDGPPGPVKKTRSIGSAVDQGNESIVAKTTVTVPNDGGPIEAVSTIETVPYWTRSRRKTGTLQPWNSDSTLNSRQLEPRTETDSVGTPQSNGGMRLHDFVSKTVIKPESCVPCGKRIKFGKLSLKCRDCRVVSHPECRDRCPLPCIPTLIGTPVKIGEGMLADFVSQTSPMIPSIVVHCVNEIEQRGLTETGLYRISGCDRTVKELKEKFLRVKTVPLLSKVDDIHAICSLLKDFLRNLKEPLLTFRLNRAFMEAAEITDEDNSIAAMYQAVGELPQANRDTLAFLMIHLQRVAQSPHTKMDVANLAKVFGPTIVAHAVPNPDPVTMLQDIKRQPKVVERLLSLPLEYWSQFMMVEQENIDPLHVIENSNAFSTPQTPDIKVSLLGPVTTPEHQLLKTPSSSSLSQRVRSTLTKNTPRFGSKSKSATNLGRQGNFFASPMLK

Coagulation factor XII, sequence (P00748 20-372 limits assumed): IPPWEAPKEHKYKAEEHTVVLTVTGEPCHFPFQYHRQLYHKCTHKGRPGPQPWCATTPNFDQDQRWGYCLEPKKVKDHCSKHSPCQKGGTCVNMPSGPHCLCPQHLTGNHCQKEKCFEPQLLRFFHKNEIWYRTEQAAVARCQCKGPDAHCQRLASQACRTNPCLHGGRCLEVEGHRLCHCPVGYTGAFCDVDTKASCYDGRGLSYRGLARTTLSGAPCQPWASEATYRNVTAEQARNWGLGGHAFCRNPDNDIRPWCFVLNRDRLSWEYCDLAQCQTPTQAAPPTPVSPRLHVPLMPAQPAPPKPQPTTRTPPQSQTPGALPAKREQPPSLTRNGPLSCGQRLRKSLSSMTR
Coagulation factor XII, sequence (P00748 373-615 limits assumed): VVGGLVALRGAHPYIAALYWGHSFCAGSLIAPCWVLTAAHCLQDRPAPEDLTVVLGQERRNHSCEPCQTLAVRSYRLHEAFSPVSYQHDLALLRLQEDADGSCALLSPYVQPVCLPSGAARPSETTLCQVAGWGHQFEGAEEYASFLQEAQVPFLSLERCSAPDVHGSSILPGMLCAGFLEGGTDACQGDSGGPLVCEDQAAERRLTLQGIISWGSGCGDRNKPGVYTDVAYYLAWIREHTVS
Hexokinase, sequence (Q38C41 whole entry): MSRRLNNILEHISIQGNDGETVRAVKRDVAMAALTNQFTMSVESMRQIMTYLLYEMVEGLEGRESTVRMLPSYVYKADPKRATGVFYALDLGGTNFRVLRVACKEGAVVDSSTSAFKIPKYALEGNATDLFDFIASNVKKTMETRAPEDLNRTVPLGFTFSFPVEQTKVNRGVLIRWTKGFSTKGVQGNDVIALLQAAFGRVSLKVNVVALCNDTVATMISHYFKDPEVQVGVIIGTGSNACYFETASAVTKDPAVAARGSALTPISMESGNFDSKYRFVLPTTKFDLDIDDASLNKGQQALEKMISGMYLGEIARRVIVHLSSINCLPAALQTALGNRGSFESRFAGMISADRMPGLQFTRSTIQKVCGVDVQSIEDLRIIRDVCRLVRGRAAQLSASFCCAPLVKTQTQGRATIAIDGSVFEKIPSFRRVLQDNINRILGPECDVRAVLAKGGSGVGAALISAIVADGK
Alkaline phosphatase, placental type, sequence (P05187 whole entry): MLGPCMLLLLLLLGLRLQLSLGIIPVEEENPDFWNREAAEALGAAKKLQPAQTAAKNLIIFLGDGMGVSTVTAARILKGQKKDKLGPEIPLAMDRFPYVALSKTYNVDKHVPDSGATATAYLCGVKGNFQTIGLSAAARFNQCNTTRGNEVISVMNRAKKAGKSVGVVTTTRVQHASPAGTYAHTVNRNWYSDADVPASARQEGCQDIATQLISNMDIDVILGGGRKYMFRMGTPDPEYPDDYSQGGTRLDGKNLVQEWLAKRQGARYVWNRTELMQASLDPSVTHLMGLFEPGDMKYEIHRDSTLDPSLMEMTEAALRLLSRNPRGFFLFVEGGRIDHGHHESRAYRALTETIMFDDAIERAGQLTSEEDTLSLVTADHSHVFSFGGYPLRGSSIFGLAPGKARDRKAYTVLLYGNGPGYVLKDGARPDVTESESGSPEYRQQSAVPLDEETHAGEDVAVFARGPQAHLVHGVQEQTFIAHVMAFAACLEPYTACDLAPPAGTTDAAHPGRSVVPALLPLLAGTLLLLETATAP
Glucose-6-phosphate 1-dehydrogenase, sequence (P11413 whole entry): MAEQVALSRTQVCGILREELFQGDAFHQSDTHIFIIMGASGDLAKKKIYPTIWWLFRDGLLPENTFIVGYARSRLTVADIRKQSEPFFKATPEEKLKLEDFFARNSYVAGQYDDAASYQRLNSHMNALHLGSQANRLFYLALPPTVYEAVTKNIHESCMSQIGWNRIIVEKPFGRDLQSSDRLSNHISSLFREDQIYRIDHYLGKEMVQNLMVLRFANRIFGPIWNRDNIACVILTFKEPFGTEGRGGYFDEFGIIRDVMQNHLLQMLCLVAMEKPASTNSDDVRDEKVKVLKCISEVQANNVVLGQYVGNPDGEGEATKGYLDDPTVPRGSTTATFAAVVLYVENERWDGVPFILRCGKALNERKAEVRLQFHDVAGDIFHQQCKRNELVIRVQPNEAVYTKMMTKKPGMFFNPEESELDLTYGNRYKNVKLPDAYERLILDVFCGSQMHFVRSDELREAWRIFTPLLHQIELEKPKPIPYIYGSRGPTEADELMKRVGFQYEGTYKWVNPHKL

Compound: CCNS(=O)(=O)c1cc(S(C)(=O)=O)ccc1Cl
- IC50 [1]: > 79.4 µM (inactive)
- IC50 [2]: > 79.4 µM (inactive)
- IC50 [3]: > 79.4 µM (inactive)

Compound: Oc1ccc(C2=Nn3c(nnc3-c3ccccc3Cl)SC2)cc1O
- IC50 [4]: 15 µM (active)
- IC50 [5]: 4.02 µM (active)

Compound: O=C(Nc1ncc(Cc2ccccc2)s1)c1cccs1
- EC50 (Streptokinase A): > 150 µM (not active)
- EC50 (Streptococcus): > 150 µM (not active)
- EC50 [6]: 15.6 µM (active)
- IC50 (Coagulation factor XII): > 50 µM (inactive)

Compound: O=c1c2ccccc2sn1-c1ccc(Cl)cc1
- IC50 (Hexokinase): 1.1 µM (active)
- CC50 [7]: 100 µM (active)
- IC50 (Phosphomannomutase 2): 35.6 µM (active)
- IC50 [8]: 10.5 µM (active)
- IC50 [9]: 34.7 µM (active)
